≈ marks a conversion by molar mass, not a printed value. Read-outs that look alike come from different tables or passages of the source.
Columns and labels:
Klebsiella pneumoniae = experiment: Antibiotic activity (MIC), Gradient Plate in vitro method, Klebsiella pneumoniae; assay type: cell-based; details: read-out: Minimum Inhibitory Concentration
Text: (§1) The values in the table are the minimum inhibitory concentrations (MIC) for the test compounds against the indicated microorganisms. The MIC values were obtained in the Gradient Plate in vitro method for determining antibiotic activity.

Aerobacter Aerogenes = experiment: Antibiotic activity (MIC), Gradient Plate in vitro method, Aerobacter Aerogenes; assay type: cell-based; details: Klebsiella aerogenes, read-out: Minimum Inhibitory Concentration
Text: as §1

Salmonella heidelberg = experiment: Antibiotic activity (MIC), Gradient Plate in vitro method, Salmonella heidelberg; assay type: cell-based; details: Salmonella enterica, read-out: Minimum Inhibitory Concentration
Text: as §1

[1] = system: X466 (methicillin resistant Staphylococcus); experiment: Antibiotic activity (MIC), Gradient Plate in vitro method, X466; assay type: cell-based; details: read-out: Minimum Inhibitory Concentration
Text: The antibiotic activity of the cephalosporin compounds of the present invention is illustrated by the data presented in Table I for representative compounds. The values in the table are the minimum inhibitory concentrations (MIC) for the test compounds against the indicated microorganisms. The MIC values were obtained in the Gradient Plate in vitro method for determining antibiotic activity. […]

Pseudomonas Aeruginosa = experiment: Antibiotic activity (MIC), Gradient Plate in vitro method, Pseudomonas Aeruginosa; assay type: cell-based; details: read-out: Minimum Inhibitory Concentration
Text: as §1

Serratia marcescens = experiment: Antibiotic activity (MIC), Gradient Plate in vitro method, Serratia marcescens; assay type: cell-based; details: read-out: Minimum Inhibitory Concentration
Text: (§2) The antibiotic activity of the cephalosporin compounds of the present invention is illustrated by the data presented in Table I for representative compounds. The values in the table are the minimum inhibitory concentrations (MIC) for the test compounds against the indicated microorganisms. The MIC values were obtained in the Gradient Plate in vitro method for determining antibiotic activity.

[2] = system: V84 (penicillin resistant Staphylococcus); experiment: Antibiotic activity (MIC), Gradient Plate in vitro method, V84; assay type: cell-based; details: read-out: Minimum Inhibitory Concentration
Text: as §2
(§3) ^1 Test organisms V41, V32, and V84 are penicillin resistant

Shigella sp. = experiment: Antibiotic activity (MIC), Gradient Plate in vitro method, Shigella sp.; assay type: cell-based; details: read-out: Minimum Inhibitory Concentration
Text: as §2

[3] = system: V41 (penicillin resistant Staphylococcus); experiment: Antibiotic activity (MIC), Gradient Plate in vitro method, V41; assay type: cell-based; details: read-out: Minimum Inhibitory Concentration
Text: as §2, §3

Titration (pKa) = assay type: physicochemical; details: 66% dmf-34% h2o, titration (66% DMF-34% H2O)
Escherichia coli = experiment: Antibiotic activity (MIC), Gradient Plate in vitro method, Escherichia coli; assay type: cell-based; details: read-out: Minimum Inhibitory Concentration
Text: as §1

[4] = system: V32 (penicillin resistant Staphylococcus); experiment: Antibiotic activity (MIC), Gradient Plate in vitro method, V32; assay type: cell-based; details: read-out: Minimum Inhibitory Concentration
Text: as §2, §3

[5] = first pKa, read-out: pKa (first value)
[6] = second pKa, read-out: pKa (second value)
[7] = Gradient Plate in vitro, V32, penicillin resistant Staphylococcus
[8] = Gradient Plate in vitro, V84, penicillin resistant Staphylococcus
[9] = Gradient Plate in vitro, V41, penicillin resistant Staphylococcus
[10] = third pKa, read-out: pKa (third value)

SMILES | MIC (Klebsiella pneumoniae) [µg/mL] | MIC (Aerobacter Aerogenes) [µg/mL] | MIC (Salmonella heidelberg) [µg/mL] | MIC [1] [µg/mL] | MIC (Pseudomonas Aeruginosa) [µg/mL] | MIC (Serratia marcescens) [µg/mL] | MIC ([2]; Staphylococcus) [µg/mL] | MIC (Shigella sp.) [µg/mL] | MIC ([3]; Staphylococcus) [µg/mL] | pKa (Titration (pKa); [5]) | pKa (Titration (pKa); [6]) | MIC (Escherichia coli) [µg/mL] | MIC ([4]; Staphylococcus) [µg/mL] | MIC [4, 7] [µg/mL] | MIC [2, 8] [µg/mL] | MIC [3, 9] [µg/mL] | pKa (Titration (pKa); [10])
Cc1nnc(SCC2=C(C(=O)O)N3C(=O)C(NC(=O)[C@H](NC(=O)c4cccc(O)c4)c4ccc(O)cc4)C3SC2)s1 (stereo partly drawn) [Example 10, 7-[D-[2-(4-Hydroxyphenyl)-2-[(3-hydroxybenzoyl)amino]-acetyl]amino]-3-[[(5-methyl-1,3,4-thiadiazol-2-yl)thio]-methyl]-3-cephem-4-carboxylic acid] | 16.8 (≈ 27.4 µM) | 65.5 (≈ 107 µM) | 26 (≈ 42.4 µM) | 92 (≈ 150 µM) | > 200 | > 200 | 1 (≈ 1.63 µM) | 10.4 (≈ 16.9 µM) | 1 (≈ 1.63 µM) | 5.02 | 11.9 | 28.8 (≈ 46.9 µM) | 1 (≈ 1.63 µM) | – | – | – | –
Cc1nnc(SCC2=C(C(=O)O)N3C(=O)C(NC(=O)[C@H](NC(=O)c4ccc(O)c(Cl)c4)c4ccc(O)cc4)C3SC2)s1 (stereo partly drawn) [Example 11, 7-[D-[2-(4-Hydroxyphenyl)-2-[(3-chloro-4-hydroxybenzoyl)-amino]acetyl]amino]-3-[[(5-methyl-1,3,4-thiadiazol-2-yl)-thio]methyl]-3-cephem-4-carboxylic acid] | 8.9 (≈ 13.7 µM) | 36.8 (≈ 56.8 µM) | 25 (≈ 38.6 µM) | 122 (≈ 188 µM) | 124 (≈ 191 µM) | 80 (≈ 123 µM) | 1 (≈ 1.54 µM) | 9.6 (≈ 14.8 µM) | 1 (≈ 1.54 µM) | 4.9 | 9.5 | 11.2 (≈ 17.3 µM) | – | 1.1 (≈ 1.7 µM) | – | – | –
Cc1nnc(SCC2=C(C(=O)O)N3C(=O)C(NC(=O)[C@H](NC(=O)c4cc(O)c(O)c(O)c4O)c4ccc(O)cc4)C3SC2)s1 (stereo partly drawn) [Example 14, 7-[D-[2-(4-Hydroxyphenyl)-2-[(2,3,4,5-tetrahydroxybenzoyl)amino]acetyl]amino]-3-[[(1-methyl-1,3,4-thiadiazol-2-yl)thio]methyl]-3-cephem-4-carboxylic acid] | 5 (≈ 7.56 µM) | 9.1 (≈ 13.8 µM) | 3 (≈ 4.53 µM) | 134 (≈ 203 µM) | 92 (≈ 139 µM) | > 200 | – | 5.7 (≈ 8.61 µM) | – | 4.98 | 7.63 | 10.1 (≈ 15.3 µM) | – | 7.1 (≈ 10.7 µM) | 6.2 (≈ 9.37 µM) | 7.2 (≈ 10.9 µM) | 9.69
Cn1nnnc1SCC1=C(C(=O)O)N2C(=O)C(NC(=O)[C@H](NC(=O)c3cc(O)ccc3O)c3ccc(O)cc3)C2SC1 (stereo partly drawn) [Example 15, 7-[D-[2-(4-Hydroxyphenyl)-2-[(2,5-dihydroxybenzoyl)-amino]acetyl]amino]-3-[[(1-methyltetrazol-5-yl)thio]-methyl]-3-cephem-4-carboxylic acid] | 32.2 (≈ 52.5 µM) | 43.5 (≈ 70.9 µM) | 17.8 (≈ 29 µM) | > 200 | > 200 | > 200 | – | 26.5 (≈ 43.2 µM) | – | 5.08 | 11 | 28 (≈ 45.6 µM) | – | 13 (≈ 21.2 µM) | 10 (≈ 16.3 µM) | 15 (≈ 24.4 µM) | 12.5
Cn1nnnc1SCC1=C(C(=O)O)N2C(=O)C(NC(=O)[C@H](NC(=O)c3cc(O)cc(O)c3)c3ccc(O)cc3)C2SC1 (stereo partly drawn) [Example 16, 7-[D-[2-(4-Hydroxyphenyl)-2-[(3,5-dihydroxybenzoyl)-amino]acetyl]amino]-3-[[(1-methyltetrazol-5-yl)thio]-methyl]-3-cephem-4-carboxylic acid] | 17.4 (≈ 28.4 µM) | 22 (≈ 35.9 µM) | 8.1 (≈ 13.2 µM) | 112 (≈ 183 µM) | > 200 | > 200 | – | 9.8 (≈ 16 µM) | – | 5.22 | 11.7 | 16.5 (≈ 26.9 µM) | – | 1.9 (≈ 3.1 µM) | 2.7 (≈ 4.4 µM) | 4.5 (≈ 7.33 µM) | ≥ 12
Cn1nnnc1SCC1=C(C(=O)O)N2C(=O)C(NC(=O)[C@H](NC(=O)c3ccc(O)cc3O)c3ccc(O)cc3)C2SC1 (stereo partly drawn) [Example 17, 7-[D-[2-(4-Hydroxyphenyl)-2-[(2,4-dihydroxybenzoyl)-amino]-acetyl]amino]-3-[[(1-methyltetrazol-5-yl)thio]-methyl]-3-cephem-4-carboxylic acid] | 15.5 (≈ 25.3 µM) | 36 (≈ 58.7 µM) | 14 (≈ 22.8 µM) | 102 (≈ 166 µM) | 92 (≈ 150 µM) | > 200 | – | 9.2 (≈ 15 µM) | 4 (≈ 6.52 µM) | 4.97 | 9.58 | 18 (≈ 29.3 µM) | – | 3.5 (≈ 5.7 µM) | 2.4 (≈ 3.91 µM) | – | 12.1
O=C(O)C1=C(Cl)CSC2C(NC(=O)[C@H](NC(=O)c3cccc(O)c3O)c3ccccc3)C(=O)N12 (stereo partly drawn) [Example 18, 7-[D-[2-Phenyl-2-[(2,3-dihydroxybenzoyl)amino]acetyl]-amino]-3-chloro-3-cephem-4-carboxylic acid] | 7 (≈ 13.9 µM) | 50 (≈ 99.2 µM) | 1 (≈ 1.98 µM) | > 200 | > 200 | > 200 | – | 18 (≈ 35.7 µM) | – | 4.55 | 3.84 | 82 (≈ 163 µM) | – | 21.5 (≈ 42.7 µM) | 14.2 (≈ 28.2 µM) | 24 (≈ 47.6 µM) | –
CC(=O)OCC1=C(C(=O)O)N2C(=O)C(NC(=O)C(NC(=O)c3cccc(O)c3O)c3ccccc3)C2SC1 [Example 19, 7-[D-[2-Phenyl-2-[(2,3-dihydroxybenzoyl)amino]acetyl]-amino]-3-acetoxymethyl-3-cephem-4-carboxylic acid] | 7.4 (≈ 13.7 µM) | > 200 | 1 (≈ 1.85 µM) | > 200 | 56 (≈ 103 µM) | > 200 | – | 50 (≈ 92.3 µM) | – | 5 | 8.72 | > 200 | – | 16.2 (≈ 29.9 µM) | 14.7 (≈ 27.1 µM) | 17 (≈ 31.4 µM) | –
